Assay results reported in publication PMC6392429 (ACS infectious diseases, 2018).
Where “and” joins values, the source holds several entries; their conditions need not be identical. Identical values can stand only once. Like-named read-outs stand apart in the source and are kept apart here.

Tests used:
[1] = target: T1, DENV2 sE2 (Dengue virus type 2, UniProt P14340); details: assay optimisation, Figure S1
[2] = system: DENV2 NGC; test: Viral infectivity assay; assay type: cell-based, dengue virus serotype 2 New Guinea C; details: negative control compound
[3] = Microsome stability in vitro; assay type: in vitro ADME; details: mouse microsomes in vitro
[4] = system: DENV1 WP74; test: Plaque reduction assay, DENV1; assay type: cell-based, dengue virus serotype 1; details: read-out: PRNT50 DENV1
[5] = system: BHK-21 cells; assay type: cell-based
[6] = system: DENV4 TVP360; test: Plaque reduction assay, DENV4; assay type: cell-based, dengue virus serotype 4; details: read-out: PRNT50 DENV4
[7] = system: DENV3 THD3; test: Plaque reduction assay, DENV3; assay type: cell-based, dengue virus serotype 3; details: read-out: PRNT50 DENV3
[8] = target: T1, DENV2 sE2; details: biolayer interferometry
[9] = Dynamic light scattering, particle size; assay type: physicochemical
[10] = system: DENV2 NGC; test: Plaque reduction assay, DENV2; assay type: cell-based, dengue virus serotype 2; details: read-out: PRNT50 DENV2
[11] = system: E-mediated fusion of DENV2 virions with liposomes; details: for Inhibition of E-mediated fusion: close to IC90
[12] = system: ZIKV PF-251013–18; test: Plaque reduction assay, ZIKV; details: read-out: PRNT50 ZIKV
[13] = target: AmpC β-lactamase (Escherichia coli, UniProt P00811)
[14] = target: T2, malate dehydrogenase (MDH) (Sus scrofa, UniProt P00346); test: Malate dehydrogenase; assay type: biochemical
T2 sequence (P00346 25-338): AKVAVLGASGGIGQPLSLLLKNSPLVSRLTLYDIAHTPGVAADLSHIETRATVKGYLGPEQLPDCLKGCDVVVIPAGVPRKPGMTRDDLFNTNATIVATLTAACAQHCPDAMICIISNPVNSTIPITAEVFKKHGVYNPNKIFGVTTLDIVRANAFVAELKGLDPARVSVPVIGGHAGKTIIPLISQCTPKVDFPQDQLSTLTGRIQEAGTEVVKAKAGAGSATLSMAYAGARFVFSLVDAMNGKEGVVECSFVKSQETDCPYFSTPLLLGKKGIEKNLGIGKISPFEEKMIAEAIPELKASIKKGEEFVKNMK

[15] = system: VSV-eGFP; assay type: cell-based, vesicular stomatitis virus
[16] = read-out: IC50 AmpC no TritonX, no Triton X-100
[17] = read-out: IC50 AmpC with TritonX, with 0.01% Triton X-100
[18] = read-out: IC50 MDH no TritonX, no Triton X-100
[19] = read-out: IC50 MDH with TritonX, with 0.01% Triton X-100

Sequence of AmpC β-lactamase (P00811 20-377): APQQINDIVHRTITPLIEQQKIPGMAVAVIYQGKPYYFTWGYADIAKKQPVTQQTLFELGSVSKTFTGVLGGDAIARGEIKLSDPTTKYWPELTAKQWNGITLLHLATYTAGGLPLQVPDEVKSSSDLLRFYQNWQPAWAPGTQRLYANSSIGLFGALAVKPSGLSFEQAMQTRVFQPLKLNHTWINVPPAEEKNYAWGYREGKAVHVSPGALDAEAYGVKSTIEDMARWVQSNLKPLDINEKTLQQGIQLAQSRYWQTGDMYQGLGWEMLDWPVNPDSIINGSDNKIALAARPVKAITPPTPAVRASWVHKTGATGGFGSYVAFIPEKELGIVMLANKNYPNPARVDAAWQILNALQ

CN1CCN(c2ccc(Nc3cc(Oc4ccccc4)ncn3)cc2)CC1 [JW-068, N−[4-(4-Methylpiperazin-1-yl)phenyl]-6-phenoxypyrimidin-4-amine]
Competition with GNF2-biotin for binding to sE2 [1]: absence of competition | Inhibition of DENV2 infection [2]: does not inhibit DENV2 infection

COc1cc(C(=O)NS(=O)(=O)c2ccccc2C)ccc1Cc1cn(C)c2ccc(NC(=O)OC3CCCC3)cc12 [S1633]
T1/2 (Microsome stability) [3]: 37.7 min | IC50 ([4]; BHK-21 cells, scored): 1 to 10 µM | CC50 [5]: 50 ± 3 µM | IC50 ([6]; BHK-21 cells, scored): 1 to 10 µM | IC50 ([7]; BHK-21 cells, scored): > 10 µM | Kd [8]: 5.2 ± 2.1 µM | Particle size at 40 μM with Tween20 [9]: 9.2 nm | Particle size at 40 μM without Tween20 [9]: 823 nm | IC50 ([10]; BHK-21 cells, scored): 1 to 10 µM | Inhibition of E-mediated fusion ([11]; 10 μM): inhibit E-mediated fusion | IC50 ([12]; Vero cells, scored): > 10 µM | IC50 [13, 16]: 36.6 µM | IC50 [13, 17]: > 100 µM | IC50 [14, 18]: 48.2 µM | IC50 [14, 19]: > 100 µM

Cc1cc(C(C#N)c2ccc(Cl)cc2)c(Cl)cc1NC(=O)c1cc(I)cc(I)c1O (stereo not drawn) [S4105]
T1/2 (Microsome stability) [3]: > 120 min | Inhibition % vs. VSV-eGFP [15]: 64% and 60% | IC50 ([4]; BHK-21 cells, scored): < 1 µM | IC50 ([4]; bound stated): ≤ 1 µM | CC50 [5]: 50 ± 15 µM | IC50 ([6]; BHK-21 cells, scored): < 1 µM | IC50 ([6]; bound stated): ≤ 1 µM | IC50 ([7]; BHK-21 cells, scored): 1 to 10 µM | IC50 ([7]; bound stated): ≤ 10 µM | Kd [8]: 0.9 ± 0.3 µM | Particle size at 40 μM with Tween20 [9]: 13.1 nm | Particle size at 40 μM without Tween20 [9]: 82 nm | IC50 ([10]; BHK-21 cells, scored): < 1 µM | IC50 ([10]; bound stated): ≤ 1 µM | Inhibition of viral fusion (protection of core from trypsin digestion) ([11]; at 5, 1, and 0.5 μM, Western blot): inhibit viral fusion in a concentration-dependent manner | IC50 ([12]; Vero cells, scored): < 1 µM | IC50 ([12]; bound stated): ≤ 1 µM | IC50 [13, 16]: 19.5 µM | IC50 [13, 17]: > 100 µM | IC50 [14, 18]: 0.3 µM | IC50 [14, 19]: > 100 µM

CN(CC(=O)N(Cc1ccc(C2CCCCC2)cc1)c1ccc(C(=O)O)cc1)S(=O)(=O)c1c(F)c(F)c(F)c(F)c1F [S7337]
T1/2 (Microsome stability) [3]: 3.2 min | IC50 ([4]; BHK-21 cells, scored): < 1 µM | IC50 ([4]; bound stated): ≤ 1 µM | CC50 [5]: 13 ± 5 µM | IC50 ([6]; BHK-21 cells, scored): < 1 µM | IC50 ([6]; bound stated): ≤ 1 µM | IC50 ([7]; bound stated): ≤ 10 µM | Kd [8]: 1.3 ± 0.5 µM | Particle size at 40 μM with Tween20 [9]: 8.2 nm | Particle size at 40 μM without Tween20 [9]: 144 nm | IC50 ([10]; BHK-21 cells, scored): < 1 µM | IC50 ([10]; bound stated): ≤ 1 µM | Inhibition of E-mediated fusion ([11]; 3 μM): inhibit E-mediated fusion | IC50 ([12]; Vero cells, scored): 1 to 10 µM | IC50 ([12]; bound stated): ≤ 10 µM | IC50 [13, 16]: > 100 µM | IC50 [13, 17]: > 100 µM | IC50 [14, 18]: 86.4 µM | IC50 [14, 19]: > 100 µM
